According to patent publication US20100298141A1, “SUBSTITUTED PYRIDINE N-OXIDE HERBICIDES” (E. I. DU PONT DE NEMOURS AND COMPANY, priority 2007, published 2010):

What was measured:
rice = assay: Test C flooded paddy test; format: in vivo, Oryza sativa; conditions: Flood
From the text: (§1) At time of treatment, test pots were flooded to 3 cm above the soil surface, treated by application of test compounds directly to the paddy water, and then maintained at that water depth for the duration of the test. Treated plants and controls were maintained in a greenhouse for 13 to 15 days, after which time all species were compared to controls and visually evaluated. […] A dash (-) response means no test result.

barnyardgrass [1] = assay: Test C flooded paddy test; format: in vivo, Echinochloa crus-galli; conditions: Flood
From the text: as §1

barnyardgrass [2] = assay: Test A pre-/postemergence greenhouse test; format: in vivo, Echinochloa crus-galli; conditions: for Plant response rating, Barnyardgrass: 0 to 100 scale where 0 is no effect and 100 is complete control; for Barnyardgrass plant response rating: 0 to 100 scale
Outline: (§2)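 Test compounds in non-phytotoxic solvent with surfactant were applied as a preemergence soil spray to seeded loam/sand pots and, concurrently, postemergence to plants at 2–10 cm, one- to two-leaf stage. About ten days in greenhouse, then injury visually rated against untreated controls.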

velvetleaf = assay: Test A pre-/postemergence greenhouse test; format: in vivo, Abutilon theophrasti; conditions: for Plant response rating, Velvetleaf: 0 to 100 scale where 0 is no effect and 100 is complete control; for Velvetleaf plant response rating: 0 to 100 scale
Outline: as §2

corn = assay: Test A pre-/postemergence greenhouse test; format: in vivo, Zea mays; conditions: for Plant response rating, Corn: 0 to 100 scale where 0 is no effect and 100 is complete control; for Corn plant response rating: 0 to 100 scale
Outline: as §2

giant foxtail = assay: Test A pre-/postemergence greenhouse test; format: in vivo, Setaria faberi; conditions: for Plant response rating, Foxtail, Giant: 0 to 100 scale where 0 is no effect and 100 is complete control; for Foxtail, Giant plant response rating: 0 to 100 scale
Outline: as §2

umbrella sedge = assay: Test C flooded paddy test; format: in vivo, Cyperus difformis; conditions: Flood
From the text: as §1

morningglory = assay: Test A pre-/postemergence greenhouse test; format: in vivo, Ipomoea spp.; conditions: for Plant response rating, Morningglory: 0 to 100 scale where 0 is no effect and 100 is complete control; for Morningglory plant response rating: 0 to 100 scale
Outline: as §2

duck salad = assay: Test C flooded paddy test; format: in vivo, Heteranthera limosa; conditions: Flood
From the text: as §1

crabgrass = assay: Test A pre-/postemergence greenhouse test; format: in vivo, Digitaria sanguinalis; conditions: for Plant response rating, Crabgrass, Large: 0 to 100 scale where 0 is no effect and 100 is complete control; for Crabgrass, Large plant response rating: 0 to 100 scale
Outline: as §2

redroot pigweed = assay: Test A pre-/postemergence greenhouse test; format: in vivo, Amaranthus retroflexus; conditions: for Plant response rating, Pigweed: 0 to 100 scale where 0 is no effect and 100 is complete control; for Pigweed plant response rating: 0 to 100 scale
Outline: as §2

wheat = assay: Test A pre-/postemergence greenhouse test; format: in vivo, Triticum aestivum; conditions: for Plant response rating, Wheat: 0 to 100 scale where 0 is no effect and 100 is complete control; for Wheat plant response rating: 0 to 100 scale
Outline: as §2

[3] = 31 g ai/ha, scale 0 to 100 (0 no effect, 100 complete control)
[4] = 62 g ai/ha, scale 0 to 100 (0 no effect, 100 complete control)
[5] = 125 g ai/ha, scale 0 to 100, 0 no effect, 100 complete control, 13 to 15 days
[6] = 250 g ai/ha, scale 0 to 100, 0 no effect, 100 complete control, 13 to 15 days
[7] = Postemergence, 500 g ai/ha, 0 is no effect, 100 is complete control
[8] = Preemergence, 125 g ai/ha, 0 no effect, 100 complete control
[9] = Preemergence, 500 g ai/ha, 0 no effect, 100 complete control
[10] = 62 g ai/ha, scale 0 to 100, 0 no effect, 100 complete control, 13 to 15 days
[11] = 250 g ai/ha, scale 0 to 100 (0 no effect, 100 complete control)
[12] = Postemergence, 125 g ai/ha, 0 is no effect, 100 is complete control

Structure (SMILES): Cn1nc(C(F)(F)F)c(CS(=O)(=O)c2ccc(F)c[n+]2[O-])c1OCC(F)(F)F [Compound 106]
- Plant response rating, Rice (rice; [3]): 0
- Plant response rating, Rice (rice; [4]): 0
- Plant response rating, Rice (rice; [5]): 20
- Plant response rating, Rice (rice; [6]): 25
- Plant response rating, Barnyardgrass (barnyardgrass [1]; [3]): 0
- Plant response rating, Barnyardgrass (barnyardgrass [1]; [4]): 0
- Plant response rating, Barnyardgrass (barnyardgrass [1]; [5]): 15
- Plant response rating, Barnyardgrass (barnyardgrass [1]; [6]): 20
- Plant response rating, Barnyardgrass (barnyardgrass [2]; Postemergence, 125 g ai/ha): 40
- Barnyardgrass plant response rating (barnyardgrass [2]; [7]): 70
- Barnyardgrass plant response rating (barnyardgrass [2]; [8]): 40
- Barnyardgrass plant response rating (barnyardgrass [2]; [9]): 90
- Plant response rating, Velvetleaf (velvetleaf; Postemergence, 125 g ai/ha): 0
- Velvetleaf plant response rating (velvetleaf; [7]): 20
- Velvetleaf plant response rating (velvetleaf; [8]): 0
- Velvetleaf plant response rating (velvetleaf; [9]): 60
- Plant response rating, Corn (corn; Postemergence, 125 g ai/ha): 0
- Corn plant response rating (corn; [7]): 0
- Corn plant response rating (corn; [8]): 0
- Corn plant response rating (corn; [9]): 0
- Plant response rating, Foxtail, Giant (giant foxtail; Postemergence, 125 g ai/ha): 50
- Foxtail, Giant plant response rating (giant foxtail; [7]): 80
- Foxtail, Giant plant response rating (giant foxtail; [8]): 40
- Foxtail, Giant plant response rating (giant foxtail; [9]): 80
- Plant response rating, Sedge, Umbrella (umbrella sedge; [3]): 0
- Plant response rating, Sedge, Umbrella (umbrella sedge; [4]): 0
- Plant response rating, Sedge, Umbrella (umbrella sedge; [5]): 0
- Plant response rating, Sedge, Umbrella (umbrella sedge; [6]): 30
- Plant response rating, Morningglory (morningglory; Postemergence, 125 g ai/ha): 0
- Morningglory plant response rating (morningglory; [7]): 30
- Morningglory plant response rating (morningglory; [8]): 10
- Morningglory plant response rating (morningglory; [9]): 50
- Plant response rating, Ducksalad (duck salad; [3]): 0
- Plant response rating, Ducksalad (duck salad; [4]): 50
- Plant response rating, Ducksalad (duck salad; [5]): 60
- Plant response rating, Ducksalad (duck salad; [6]): 80
- Plant response rating, Crabgrass, Large (crabgrass; Postemergence, 125 g ai/ha): 30
- Crabgrass, Large plant response rating (crabgrass; [7]): 80
- Crabgrass, Large plant response rating (crabgrass; [8]): 60
- Crabgrass, Large plant response rating (crabgrass; [9]): 80
- Plant response rating, Pigweed (redroot pigweed; Postemergence, 125 g ai/ha): 0
- Pigweed plant response rating (redroot pigweed; [7]): 50
- Pigweed plant response rating (redroot pigweed; [8]): 70
- Pigweed plant response rating (redroot pigweed; [9]): 80
- Plant response rating, Wheat (wheat; Postemergence, 125 g ai/ha): 0
- Wheat plant response rating (wheat; [7]): 0
- Wheat plant response rating (wheat; [8]): 0
- Wheat plant response rating (wheat; [9]): 0

Structure (SMILES): Cc1cc[n+]([O-])c([S+]([O-])C(C)c2c(C(F)(F)F)nn(C)c2Cl)c1 (mixture of isomers) [Compound 15]
- Plant response rating, Rice (rice; [3]): 0
- Plant response rating, Rice (rice; [10]): 0
- Plant response rating, Rice (rice; [5]): 0
- Plant response rating, Rice (rice; [11]): 0
- Plant response rating, Barnyardgrass (barnyardgrass [1]; [3]): 20
- Plant response rating, Barnyardgrass (barnyardgrass [1]; [10]): 20
- Plant response rating, Barnyardgrass (barnyardgrass [1]; [5]): 20
- Plant response rating, Barnyardgrass (barnyardgrass [1]; [11]): 20
- Barnyardgrass plant response rating (barnyardgrass [2]; [12]): 0
- Barnyardgrass plant response rating (barnyardgrass [2]; [7]): 0
- Barnyardgrass plant response rating (barnyardgrass [2]; [8]): 0
- Plant response rating, Barnyardgrass (barnyardgrass [2]; Preemergence, 500 g ai/ha): 0
- Velvetleaf plant response rating (velvetleaf; [12]): 0
- Velvetleaf plant response rating (velvetleaf; [7]): 0
- Velvetleaf plant response rating (velvetleaf; [8]): 0
- Plant response rating, Velvetleaf (velvetleaf; Preemergence, 500 g ai/ha): 0
- Corn plant response rating (corn; [12]): 0
- Corn plant response rating (corn; [7]): 0
- Corn plant response rating (corn; [8]): 0
- Plant response rating, Corn (corn; Preemergence, 500 g ai/ha): 0
- Foxtail, Giant plant response rating (giant foxtail; [12]): 0
- Foxtail, Giant plant response rating (giant foxtail; [7]): 0
- Foxtail, Giant plant response rating (giant foxtail; [8]): 0
- Plant response rating, Foxtail, Giant (giant foxtail; Preemergence, 500 g ai/ha): 0
- Plant response rating, Sedge, Umbrella (umbrella sedge; [3]): 85
- Plant response rating, Sedge, Umbrella (umbrella sedge; [10]): 85
- Plant response rating, Sedge, Umbrella (umbrella sedge; [5]): 85
- Morningglory plant response rating (morningglory; [12]): 0
- Morningglory plant response rating (morningglory; [7]): 0
- Morningglory plant response rating (morningglory; [8]): 0
- Plant response rating, Morningglory (morningglory; Preemergence, 500 g ai/ha): 0
- Plant response rating, Ducksalad (duck salad; [3]): 20
- Plant response rating, Ducksalad (duck salad; [10]): 80
- Plant response rating, Ducksalad (duck salad; [5]): 80
- Crabgrass, Large plant response rating (crabgrass; [12]): 0
- Crabgrass, Large plant response rating (crabgrass; [7]): 0
- Crabgrass, Large plant response rating (crabgrass; [8]): 0
- Plant response rating, Crabgrass, Large (crabgrass; Preemergence, 500 g ai/ha): 20
- Pigweed plant response rating (redroot pigweed; [12]): 0
- Pigweed plant response rating (redroot pigweed; [7]): 0
- Plant response rating, Pigweed (redroot pigweed; Preemergence, 500 g ai/ha): 0
- Wheat plant response rating (wheat; [12]): 0
- Wheat plant response rating (wheat; [7]): 0
- Wheat plant response rating (wheat; [8]): 0
- Plant response rating, Wheat (wheat; Preemergence, 500 g ai/ha): 0

Structure (SMILES): Cn1nc(C(F)(F)F)c(CS(=O)(=O)c2ccc(Cl)c[n+]2[O-])c1OCC(F)(F)C(F)(F)F [Compound 97]
- Plant response rating, Rice (rice; [4]): 0
- Plant response rating, Rice (rice; [6]): 30
- Plant response rating, Barnyardgrass (barnyardgrass [1]; [4]): 0
- Plant response rating, Barnyardgrass (barnyardgrass [1]; [6]): 0
- Plant response rating, Barnyardgrass (barnyardgrass [2]; Postemergence, 125 g ai/ha): 20
- Barnyardgrass plant response rating (barnyardgrass [2]; [7]): 70
- Barnyardgrass plant response rating (barnyardgrass [2]; [8]): 10
- Plant response rating, Barnyardgrass (barnyardgrass [2]; Preemergence, 500 g ai/ha): 90
- Plant response rating, Velvetleaf (velvetleaf; Postemergence, 125 g ai/ha): 0
- Velvetleaf plant response rating (velvetleaf; [7]): 30
- Velvetleaf plant response rating (velvetleaf; [8]): 0
- Velvetleaf plant response rating (velvetleaf; [9]): 0
- Plant response rating, Corn (corn; Postemergence, 125 g ai/ha): 0
- Corn plant response rating (corn; [7]): 0
- Corn plant response rating (corn; [8]): 0
- Plant response rating, Corn (corn; Preemergence, 500 g ai/ha): 0
- Plant response rating, Foxtail, Giant (giant foxtail; Postemergence, 125 g ai/ha): 30
- Foxtail, Giant plant response rating (giant foxtail; [7]): 70
- Foxtail, Giant plant response rating (giant foxtail; [8]): 70
- Plant response rating, Foxtail, Giant (giant foxtail; Preemergence, 500 g ai/ha): 80
- Plant response rating, Sedge, Umbrella (umbrella sedge; [4]): 0
- Plant response rating, Sedge, Umbrella (umbrella sedge; [6]): 0
- Plant response rating, Morningglory (morningglory; Postemergence, 125 g ai/ha): 0
- Morningglory plant response rating (morningglory; [7]): 0
- Morningglory plant response rating (morningglory; [8]): 0
- Plant response rating, Morningglory (morningglory; Preemergence, 500 g ai/ha): 20
- Plant response rating, Ducksalad (duck salad; [4]): 0
- Plant response rating, Ducksalad (duck salad; [6]): 40
- Plant response rating, Crabgrass, Large (crabgrass; Postemergence, 125 g ai/ha): 20
- Crabgrass, Large plant response rating (crabgrass; [7]): 60
- Crabgrass, Large plant response rating (crabgrass; [8]): 20
- Plant response rating, Crabgrass, Large (crabgrass; Preemergence, 500 g ai/ha): 70
- Plant response rating, Pigweed (redroot pigweed; Postemergence, 125 g ai/ha): 0
- Pigweed plant response rating (redroot pigweed; [7]): 20
- Pigweed plant response rating (redroot pigweed; [8]): 30
- Plant response rating, Pigweed (redroot pigweed; Preemergence, 500 g ai/ha): 30
- Plant response rating, Wheat (wheat; Postemergence, 125 g ai/ha): 0
- Wheat plant response rating (wheat; [7]): 30
- Wheat plant response rating (wheat; [8]): 0
- Wheat plant response rating (wheat; [9]): 0
